Values of other authors as cited in patent US20150216798A1, “NOVEL ORALLY ADMINISTERED PHARMACEUTICAL FORMULATIONS” (Sanovel Ilac Sanayi Ve Ticaret Anonim Sirketi, priority 2012, published 2015).

Conditions: after oral administration

## CN1CC(=O)N2[C@H](c3ccc4c(c3)OCO4)c3[nH]c4ccccc4c3C[C@@H]2C1=O [Tadalafil, (6R-trans)-6-(1,3-benzodioxol-5-yl)-2,3,6,7,12,12a-hexahydro-2-methyl-pyrazine [1′,2′:1,6]pyrido[3,4-b]indol-1,4-dion]
  duration of effect: ≤ 36 h
  onset of action: 15 min
